From patent publication US5672603A, “Apoptosis regulating composition” (Otsuka Pharmaceutical Co., Ltd., priority 1991, dated 1997)
Where “and” joins values, the source holds several entries; their conditions need not be identical. Equal entries are not always repeated.

Assays:
[1] = tested on: Human stomach cancer cells (KATO-III); assay: Cancer cell growth inhibition, KATO-III; type: cell-based; conditions: control 100
Protocol: The cell concentration was adjusted to 1×10^5 cells/ml using the same medium as used above in (1).
Test compound 1 was dissolved in acetic acid, followed by dilution with the same medium as used above in (1) and neutralization with 2N NaOH to give final concentrations of 100 μg/ml, 10 μg/ml and 1.0 μg/ml.
a) The test compound solutions prepared as described above under (3) were added to the HL-60 cell suspension prepared as described above under (1) to final concentrations of 10 μg/ml and 1.0 μg/ml. Using 12-well culture plates (Costar), cultivation was conducted in a 5% carbon dioxide gas incubator maintained at 37° C. for 3 to 4 days. The test compound-free medium was used as a control. Thereafter, the cell suspension in each well was sampled and mixed with 0.2% trypan blue-containing phosphate buffer, and unstained viable cells were counted under a microscope. Based on the counting result, the viable cell concentration was readjusted to 1×10^5 cells/ml, and cultivation was continued under the same conditions.
KATO-III cells prepared as described above under (2) were cultivated in the same manner.

HL-60 cells = assay: Reactivity of HL-60 cells with anti-CD33 monoclonal antibody My9 (flow cytometry); type: cell-based, human; conditions: day 27, control 97
Protocol: The monoclonal antibody My9 (Coulter) capable of specifically reacting with immature granulocytes was dissolved by adding 0.5 ml of distilled water per vial.
HL-60 cells prepared as described above under (1) were cultivated in the same manner as in a). On day 27, the cell concentration was adjusted to 1×10^6 cells/ml and 100 μl of each aliquot was reacted with 10 μl of fluorescein (FITC)-labeled My9, followed by flow cytometry.

M12 melanoma cells = assay: M12 melanoma cell growth inhibition in nude mice; type: in vivo, Balb/c nude mice; conditions: 10 mg/kg daily oral, day 25 to day 55; FIG. 2; * p<0.05
Protocol: This study was performed in groups of 10 Balb/c nude mice.
On the first day of the experiment (day 0), 2×10^6 M12 melanoma cells were transplanted into mice in the test group. When the tumor volume reached 100 mm^3, the test Compound 1 was administered orally in doses of 10 mg/kg daily to the mice. This treatment was carried out 30 times from day 25 to day 55. The tumor diameter was measured using calipers everyday after transplantation of tumor cells. The tumor volume was calculated according to the following formula.
Tumor volume (mm^3)=(long diameter)×(short diameter)^2 ×1/2

[2] = tested on: human peripheral blood acute lymphocytic leukemia cells (Molt-4); assay: ATL-infected cell growth inhibition test: ATLV-noninfected cells; type: cell-based; conditions: for Number of ATLV-noninfected cells: 4 days, control 13.9
Protocol: Human peripheral blood acute lymphocytic leukemia cells (Molt-4) [J. Minowada, et al., J. Natl. Cancer Inst., 49, 891-895 (1972): ATCC CRL1582] were used to prepare a suspension of 1×10^5 cells/ml in RPMI-1640 medium (Gibco) supplemented 10% fetal calf serum (FCS, Gibco) for use as ATL virus-noninfected cells.
Compound 1 was dissolved in hydrochloric acid, diluted with the same medium as above, neutralized with 2N NaOH and adjusted to concentrations of 1 μg/ml, 10 μg/ml and 30 μg/ml.
The cells prepared in (a) and (b) above were respectively placed in wells of a 24-well culture plate (Nunc), followed by addition of the test compound prepared in (c) (final concentration: 1 μg/ml, 10 μg/ml or 30 μg/ml), and cultured at 37° C. in a 5% carbon dioxide incubator for 4 days. As a control, the medium without addition of the test compound was used. After completion of incubation, the cell suspension in each well was taken for determination of viable cells.

anti-platelet antibodies = assay: Assay of anti-platelet antibodies in autoimmune disease mice; type: in vivo, W/BF1 mice; conditions: for Anti-platelet antibodies, % positive, Mean ± SE / Anti-platelet antibodies, % positive, individual mice: 20 weeks of age; for Anti-platelet antibodies, % positive, Mean ± SE: untreated 19.6 ± 5.5
Protocol: W/BF1 :(NZW×BXSB)F1 mice were used at the age of 14 weeks (purchased from Kiwa Experimental Animal). Groups of 10 mice were used in each experiment.
Compound 1 (Lot No. 9D87M) was used as suspended in a 0.5% solution of carborymethylcellulose (CMC, Cellogan). Compound 1 was administered to mice by oral garage in doses of 100 and 300 mg/kg body weight/day for 6 weeks from 14 weeks of age to 20 weeks of age according to the 5-day administration and 2-day cessation schedule. As a control, an untreated group was provided. […] Statistic analysis was performed by the generalized Wilcoxon test with respect to the untreated group.
(3) Oyaizu et al. have reported that in W/BF1 mice, thrombocytopenia is associated with the appearance of anti-platelet antibodies.
The platelets collected from Balb/c mice and the plasma collected from W/BF1 mice treated up to the age of 20 weeks were incubated together at room temperature for 30 minutes. The mixture was washed twice and allowed to react with FITC-labeled anti-mouse IgG (Tago, Code No. 6250), and after staining, anti-platelet antibodies were assayed with an FACS analyzer (EPICS-Profile II, Coulter). The negative control was set so that the plasma from Balb/c mice was 98% negative. The positive rate of each sample was determined.

CMK cells = assay: Morphological observation of CMK cells; type: cell-based, human; conditions: 30 μg/ml; 4 days
Protocol: CMK cells, 1×10^5 cells/ml, were incubated in 10% FCS-added RPMI-1640 medium containing Compound 1 for 4 days and observed for the morphology of cells under the phase contrast microscope. A portion of the cell population was taken and a cytospin preparation was prepared and stained with Wright-Giemsa stain for determination of the cell morphology.
Thus, FIGS. 4 and 6 are the phase constrast micrograph and stained map, respectively, of the medium control, and FIGS. 5 and 7 represent the corresponding figures for cells treated with 30 μg/ml of Compound 1.

SMILES: COc1ccc(C(=O)N2CCN(c3ccc4c(c3)CCC(=O)N4)CC2)cc1OC [Compound 1, 6-[4-(3,4-Dimethoxybenzoyl)-1-piperazinyl]-3,4-dihydrocarbostyril]
- activity at 1 µg/mL ([1]; 576 h, on day 24, 1.0 μg/ml): 88 ± 2.3%
- activity at 10 µg/mL ([1]; 576 h, on day 24, 10 μg/ml): 61 ± 1.5%
- activity at 1 µg/mL ([1]; 792 h, on day 33, 1.0 μg/ml): 0%
- activity at 10 µg/mL ([1]; 792 h, on day 33, 10 μg/ml): 0%
- Positive rate (%), anti-CD33 My9 (HL-60 cells; 1.0 μg/ml): 90%
- Positive rate (%), anti-CD33 My9 (HL-60 cells; 10 μg/ml): 77%
- Growth of M12 melanoma cells (tumor volume) (M12 melanoma cells): significantly inhibits growth of M12 melanoma cells
- Number of ATLV-noninfected cells ([2]; 1 μg/ml): 13.9 ×10^5
- Number of ATLV-noninfected cells ([2]; 10 μg/ml): 12.2 ×10^5
- Number of ATLV-noninfected cells ([2]; 30 μg/ml): 12.8 ×10^5
- Effect on ATLV-noninfected cells (in words) ([2]; 1-30 μg/ml): does not affect ATLV-noninfected cells
- Anti-platelet antibodies, % positive, Mean ± SE (anti-platelet antibodies; 100 mg/kg/day): 13.3 ± 2.7% and 13.2±2.7%
- Anti-platelet antibodies, % positive, individual mice (anti-platelet antibodies; 100 mg/kg, mouse Nos. 1-10): 3.7% and 13.5% and 3.1% and 17.3% and 21.5% and 16.8% and 18.2% and 7.8% and 8.5% and 27.1%
- Anti-platelet antibodies, % positive, Mean ± SE (anti-platelet antibodies; 300 mg/kg/day): 10.7 ± 2.2%
- Anti-platelet antibodies, % positive, individual mice (anti-platelet antibodies; 300 mg/kg, mouse Nos. 1-4, 6-9): 2.3% and 11.4% and 14.1% and 6.0% and 16.4% and 12.1% and 4.1% and 19.5%
- Inhibition of anti-platelet antibodies (in words) (anti-platelet antibodies; 100 and 300 mg/kg/day): dose-dependent inhibition of anti-platelet antibodies
- Morphology, Wright-Giemsa stained map (CMK cells): budding of the cell membrane and lobulation of the nuclei
- Morphology, phase contrast micrograph (CMK cells): fragmentation of cells like in the process of platelet production
